Assay results from patent US12612386B2, “Heteroaryl-triazole compounds as pesticides” (Bayer Aktiengesellschaft, priority 2020, dated 2026).

How the values were obtained:
Format in all cases: in vivo
[1] = system: larvae of the southern green stink bug (Nezara viridula); assay: whole plant or invertebrate; conditions: 96 h
Method: Nezara viridula—Spray Test
(§1) • Solvent: 78.0 parts by weight of acetone • 1.5 parts by weight of dimethylformamide • Emulsifier: alkylarylpolyglycol ether
(§2) To produce a suitable preparation of active compound, 1 part by weight of active compound is mixed with the stated amount of solvent, and the concentrate is diluted with water, containing an emulsifier concentration of 1000 ppm, to the desired concentration. Further test concentrations are prepared by dilution with emulsifier containing water.
Barley plants (Hordeum vulgare) are sprayed with a test solution containing the desired concentration of the active ingredient and are infested with larvae of the southern green stink bug (Nezara viridula).
After 4 days mortality in % is determined. 100% means all the stink bugs have been killed; 0% means none of the stink bugs have been killed.

[2] = system: fall armyworm larvae (Spodoptera frugiperda); assay: whole plant or invertebrate; conditions: 168 h
Method: Spodoptera frugiperda—Spray Test
(§3) • Solvent: 78.0 parts by weight acetone • 1.5 parts by weight dimethylformamide • Emulsifier: alkylarylpolyglycol ether
as §2, with “solvents” for “solvent,”, “and” for “and the concentrate”
Maize (Zea mays) leaf sections are sprayed with a preparation of the active ingredient of the desired concentration. Once dry, the leaf sections are infested with fall armyworm larvae (Spodoptera frugiperda).
After 7 days mortality in % is determined. 100% means all caterpillars have been killed and 0% means none of the caterpillars have been killed.
Spodoptera frugiperda—Spray Test (SPODFR)
After the specified period of time, mortality in % is determined. 100% means all caterpillars have been killed and 0% means none of the caterpillars have been killed.

[3] = system: larvae of the banded cucumber beetle (Diabrotica balteata); assay: Diabrotica balteata spray test; conditions: 168 h, 100 g/ha (=32 μg/well), after 7 days, read-out: efficacy (seedling growth)
Method: Diabrotica balteata—Spray Test
as §1, §2
Soaked wheat seeds (Triticum aestivum) are placed in a multiple well plate filled with agar and some water and are incubated for 1 day to germinate (5 seeds per well). The germinated wheat seeds are sprayed with a test solution containing the desired concentration of the active ingredient. Afterwards each unit is infected with 10-20 larvae of the banded cucumber beetle (Diabrotica balteata).
After 7 days efficacy in % is determined. 100% means all the seedlings have grown up like in the untreated, uninfected control; 0% means none of the seedlings have grown.

[4] = system: green peach aphid (Myzus persicae); assay: Myzus persicae spray test (MYZUPE); conditions: 120 h; for mortality at 100 g/ha: after 5 days; for Emax at 20 g/ha / Emax at 100 g/ha: MYZUPE, 5 dat (Table 4), read-out: % Efficacy; for Emax at 20 g/ha: 20 g ai/ha; for Emax at 100 g/ha: 100 g ai/ha
Method: Myzus persicae—Spray Test
• Solvent: 78.0 parts by weight acetone • 1.5 parts by weight dimethylformamide • Emulsifier: alkylarylpoly glycol ether
as §2, with “solvents” for “solvent,”, “and” for “and the concentrate”
Chinese cabbage (Brassica pekinensis) leaf disks infected with all instars of the green peach aphid (Myzus persicae), are sprayed with a preparation of the active ingredient of the desired concentration.
After 5 days mortality in % is determined. 100% means all aphids have been killed and 0% means none of the aphids have been killed.
Myzus persicae—Spray Test (MYZUPE)
as §3
After the specified period of time, mortality in % is determined. 100% means all aphids have been killed and 0% means none of the aphids have been killed.

Compound | mortality at 500 g/ha [1] | mortality at 100 g/ha [2] | pest or weed control at 32 µg/disc, 100 g/ha [3] | mortality at 100 g/ha [4] | Emax at 20 g/ha [4] | Emax at 100 g/ha [4] | Emax at 20 g/ha ([2]; SPODFR, 20 g ai/ha, 7 dat (Table 4), read-out: % Efficacy) | Emax at 100 g/ha ([2]; SPODFR, 100 g ai/ha, 7 dat (Table 4), read-out: % Efficacy) | mortality at 100 g/ha [1]
CNC(=O)c1cc(-n2nc(C)nc2[C@H](C)NC(=O)c2cc(Br)cc(OC(F)F)c2)ncn1 [I-88] | 100% | 100% | 100% | 100% | – | – | – | – | –
C[C@H](NC(=O)c1cc(OC(F)(F)F)cc(S(=O)(=O)C(F)F)c1)c1ncnn1-c1cc(C(N)=O)ncn1 [I-45] | 100% | 100% | 100% | 90% | – | – | – | – | –
C[C@H](NC(=O)c1cccc(I)c1)c1ncnn1-c1cc(C(N)=O)ncn1 [I-48] | 100% | 100% | 100% | 90% | – | – | – | – | –
C[C@H](NC(=O)c1cc(C(F)(F)F)cc(S(C)(=O)=O)c1)c1nc(C2CC2)nn1-c1cc(C(=O)N(C)C)ncn1 [I-164] | – | – | 80% | 100% | – | – | – | – | –
C[C@H](NC(=O)c1cc(OC(F)F)cc(OC(F)F)c1)c1nc(C2CC2)nn1-c1cc(C(N)=O)ncn1 [I-152] | – | 100% | 100% | 100% | – | – | – | – | –
C[C@H](NC(=O)c1cc(Br)cc(S(C)(=O)=O)c1)c1nc(C2CC2)nn1-c1cc(C(N)=O)ncn1 [I-143] | 100% | 100% | – | 100% | – | – | – | – | –
Cc1nc([C@H](C)NC(=O)c2cc(OC(F)(F)F)cc(OC(F)(F)F)c2)n(-c2cc(C(N)=O)ncn2)n1 [I-117] | 100% | 100% | 100% | – | – | – | – | – | –
C[C@H](NC(=O)c1cc(Cl)cc(S(=O)(=O)C(F)F)c1)c1ncnn1-c1cc(C#N)ncn1 [I-119] | 100% | 100% | 100% | – | – | – | – | – | –
C[C@H](NC(=O)c1cc(Br)cc(S(=O)(=O)C(F)(F)F)c1)c1ncnn1-c1cc(C(N)=O)ncn1 [I-138] | 100% | 100% | 80% | – | – | – | – | – | –
C[C@H](NC(=O)c1cc(OC(F)(F)F)cc(S(=O)(=O)C(F)F)c1)c1nc(C2CC2)nn1-c1cc(C(=O)N(C)C)ncn1 [I-156] | – | 100% | 100% | 90% | – | – | – | – | –
C[C@H](NC(=O)c1cc(Br)nc(Br)c1)c1ncnn1-c1cc(C(N)=O)ncn1 [I-148] | 100% | 100% | 100% | – | – | – | – | – | –
C[C@H](NC(=O)c1cc(OC(F)(F)F)cc(C2(C#N)CC2)c1)c1nc(C2CC2)nn1-c1cc(C(=O)N(C)C)ncn1 [I-167] | – | 100% | 80% | 100% | – | – | – | – | –
C[C@H](NC(=O)c1ccnc(OC(F)(F)F)c1)c1ncnn1-c1cc(C(N)=O)ncn1 [I-132] | 100% | 100% | 100% | – | – | – | – | – | –
CNC(=O)c1cc(-n2ncnc2[C@H](C)NC(=O)c2cccc(OC(F)(F)F)c2)ncn1 [I-110] | 100% | 100% | 100% | 90% | – | – | – | – | –
C[C@H](NC(=O)c1cc(Cl)cc(S(=O)(=O)C(F)(F)F)c1)c1ncnn1-c1ccccn1 [I-068 Known from WO 2019197468, reference compound] | – | – | – | – | 0% | 0% | – | – | –
C[C@H](NC(=O)c1cc(Cl)cc(S(C)(=O)=O)c1)c1nc(C2CC2)nn1-c1cc(C(=O)N(C)C)ncn1 [I-160] | – | 83% | 100% | 100% | – | – | – | – | –
C[C@H](NC(=O)c1cc(I)cc(OC(F)F)c1)c1ncnn1-c1cc(C(N)=O)ncn1 [I-162] | 100% | 100% | 100% | 90% | – | – | – | – | –

Compound | mortality at 500 g/ha [1] | mortality at 100 g/ha [2] | pest or weed control at 32 µg/disc, 100 g/ha [3] | mortality at 100 g/ha [4] | Emax at 20 g/ha [4] | Emax at 100 g/ha [4] | Emax at 20 g/ha ([2]; SPODFR, 20 g ai/ha, 7 dat (Table 4), read-out: % Efficacy) | Emax at 100 g/ha ([2]; SPODFR, 100 g ai/ha, 7 dat (Table 4), read-out: % Efficacy) | mortality at 100 g/ha [1]
CCNC(=O)c1cc(-n2ncnc2[C@H](C)NC(=O)c2cc(OC(F)(F)F)cc(C3(C#N)CC3)c2)ncn1 [I-168] | – | 100% | 100% | 100% | – | – | – | – | –
C[C@H](NC(=O)c1cc(Cl)cc(S(=O)(=O)C(F)(F)F)c1)c1ncnn1-c1cc(C#N)ccn1 [I-075 Known from WO 2019197468, reference compound] | – | – | – | – | 70% | 90% | 33% | 100% | –
CNC(=O)c1cc(-n2nc(C)nc2[C@H](C)NC(=O)c2cc(OC(F)F)cc(OC(F)F)c2)ncn1 [I-99] | 100% | 100% | 100% | 90% | – | – | – | – | –
CC(C)N(C)C(=O)c1cc(-n2ncnc2[C@H](C)NC(=O)c2cc(Br)cc(OC(F)F)c2)ncn1 [I-103] | – | 100% | 100% | 90% | – | – | – | – | –
C[C@H](NC(=O)c1cc(Cl)cc(OC(F)(F)C(F)F)c1)c1ncnn1-c1cc(C(N)=O)ncn1 [I-113, 6-(5-{(1S)-1-[3-chloro-5-(1,1,2,2-tetrafluoroethoxy)benzamido]ethyl}-1H-1,2,4-triazol-1-yl)pyrimidine-4-carboxamide] | – | 100% | – | 90% | – | – | – | – | –
C[C@H](NC(=O)c1cc(OC(F)(F)F)cc(S(=O)(=O)C(F)(F)F)c1)c1ncnn1-c1cc(C(N)=O)ncn1 [I-58] | 100% | 100% | 100% | 90% | – | – | – | – | –
C[C@H](NC(=O)c1cc(Cl)cc(S(=O)(=O)C(F)F)c1)c1nc(C2CC2)nn1-c1cc(C(=O)N(C)C)ncn1 [I-161] | – | 100% | 100% | 90% | – | – | – | – | –
C[C@H](NC(=O)c1cc(Cl)cc(OC(F)(F)F)c1)c1nc(C2CC2)nn1-c1cc(C(=O)N(C)C)ncn1 [I-166] | – | 100% | 100% | 100% | – | – | – | – | –
Cc1nc([C@H](C)NC(=O)c2cc(Br)cc(OC(F)(F)F)c2)n(-c2cc(C(N)=O)ncn2)n1 [I-12] | 100% | 100% | 100% | 90% | – | – | – | – | –
C[C@H](NC(=O)c1cc(OC(F)(F)F)cc(C2(C#N)CC2)c1)c1ncnn1-c1cc(C(=O)NC2CC2)ncn1 [I-169] | – | 100% | 100% | 90% | – | – | – | – | –
C[C@H](NC(=O)c1cc(OC(F)(F)F)cc(C2CC2)c1)c1nc(C2CC2)nn1-c1cc(C(=O)N(C)C)ncn1 [I-159] | – | 100% | 100% | 90% | – | – | – | – | –
Cc1nc([C@H](C)NC(=O)c2cc(OC(F)(F)F)cc(S(C)(=O)=O)c2)n(-c2cc(C#N)ncn2)n1 [I-30] | 100% | 100% | 100% | – | – | – | – | – | –
C[C@H](NC(=O)c1cc(Cl)cc(S(C)(=O)=O)c1)c1nc(C2CC2)nn1-c1cc(C(N)=O)ncn1 [I-150] | 100% | 100% | – | 90% | – | – | – | – | –
Cc1nc([C@H](C)NC(=O)c2cc(Br)cc(C#N)c2)n(-c2cc(C(N)=O)ncn2)n1 [I-127] | 100% | 100% | 100% | – | – | – | – | – | 90%
CC(C)NC(=O)c1cc(-n2ncnc2[C@H](C)NC(=O)c2cc(OC(F)(F)F)cc(C3(C#N)CC3)c2)ncn1 [I-163] | – | 100% | 100% | 100% | – | – | – | – | –
C[C@H](NC(=O)c1cc(Br)cc(OC(F)(F)C(F)F)c1)c1ncnn1-c1cc(C(N)=O)ncn1 [I-112] | – | 100% | 100% | 100% | – | – | – | – | –
CC(C)N(C)C(=O)c1cc(-n2ncnc2[C@H](C)NC(=O)c2cc(OC(F)F)cc(OC(F)F)c2)ncn1 [I-97] | – | 100% | – | 90% | – | – | – | – | –
